Experimental findings from ChEMBL document CHEMBL2062510, “Acylphloroglucinols from Elaphoglossum crassipes: antidepressant-like activity of crassipin A” (J Nat Prod, 2012) are described below.

The test system of data set [1] is Mus musculus. In words: Antidepressant activity in CF1 mouse assessed as reduction in immobility at 20 mg/kg, po measured after 60 mins by forced-swimming test. It counts as functional, organism-based. On the set-up: dose 20 mg/kg.
For data set [2], the system named is Mus musculus. In words: Toxicity in CF1 mouse assessed as change in number of crossing at 15 mg/kg, po measured after 60 mins by open-field test. It is filed as organism-based. The conditions noted are these: in vivo, 1 h. Set-up: dose 15 mg/kg, route oral.
The test system of data set [3] is Mus musculus. The experiment in a line: Toxicity in CF1 mouse assessed as change in number of grooming at 15 mg/kg, po measured after 60 mins by open-field test. It is filed as organism-based. Set-up: dose 15 mg/kg, route oral. The conditions noted are these: in vivo, 1 h.
Data set [4] has as its system Mus musculus. The experiment in a line: Antidepressant activity in CF1 mouse assessed as reduction in immobility at 15 mg/kg, po measured after 60 mins by forced-swimming test. It is filed as functional, organism-based. On the set-up: dose 15 mg/kg.
For data set [5], the system named is Mus musculus. In words: Toxicity in CF1 mouse assessed as change in number of rearing at 15 mg/kg, po measured after 60 mins by open-field test. Conditions: in vivo, 1 h. Set-up: dose 15 mg/kg, route oral. It counts as organism-based.

Activity calls are given as the source filed them. The rule behind the calls is not given here.

Take `CN(C)CCCN1c2ccccc2CCc2ccccc21`: the result with Mus musculus [1] was Active.
As to `CC/C=C(\OC(C)=O)C1=C(OC(C)=O)[C@](C)(C/C=C(\C)CCC=C(C)C)C(OC(C)=O)=C(Cc2c(OC(C)=O)c3c(c(C(=O)CCC)c2OC(C)=O)OC(C)(C)C=C3)C1=O`, the Activity entry in the data set with Mus musculus [2], in the data set on Mus musculus [3] and in the data set on Mus musculus [5] was “Non-toxic” in each case. For the same molecule, the outcome in the data set on Mus musculus [4] was Active.
For the molecule `CCCC(=O)C1=C(O)[C@](C)(C/C=C(\C)CCC=C(C)C)C(O)=C(Cc2c(O)c3c(c(C(=O)CCC)c2O)OC(C)(C)C=C3)C1=O` [CRASSIPIN A], the Activity result in the data set on Mus musculus [2], in the data set on Mus musculus [3] and in the data set with Mus musculus [5] was “Non-toxic” in each case. In addition, the outcome in the data set on Mus musculus [4] was Active.
